Consider six compounds from patent publication EP2987533B1, “7-substituted piperazin-1-yl fluoroquinolone compounds, their use in the treatment of cancer, pharmaceutical compositions and a method for preparation” (priority 2014, dated 2016).

One may read the GI50 as the concentration at which growth is held to half of that of the control. A lower GI50 goes with more potent growth inhibition. In general, inhibition refers to the relative decrease from the control value, in per cent.

Each structure is given as a SMILES string.

Type in all cases: cell-based
Assay [1] has as its system LOX IMVI. Nature of the assay: NCI five-dose SRB growth assay. The conditions noted are these: Homo sapiens; LOX IMVI (Melanoma), 48 h.
For assay [2], the system named is UACC-257. As to the kind of experiment: NCI five-dose SRB growth assay. The conditions noted are these: Homo sapiens; UACC-257 (Melanoma), 48 h. Background: The SRB assay estimates cell density from bound dye.
The test system of assay [3] is PRMI-8226. Nature of the assay: NCI five-dose SRB growth assay. As to conditions: Homo sapiens; PRMI-8226 (Leukemia), 48 h.
Assay [4] concerns SN12C. As to the kind of experiment: NCI five-dose SRB growth assay. As to conditions: Homo sapiens; SN12C (Renal Cancer), 48 h.
Assay [5] deals with HOP-62. As to the kind of experiment: NCI five-dose SRB growth assay. As to conditions: Homo sapiens; HOP-62 (Non-Small Cell Lung Cancer), 48 h.
Assay [6] deals with NCI-H322M. As to the kind of experiment: NCI five-dose SRB growth assay. The conditions noted are these: Homo sapiens; NCI-H322M (Non-Small Cell Lung Cancer), 48 h.
Assay [7] has as its system HS 578T. As to the kind of experiment: NCI one-dose SRB growth assay. The conditions noted are these: Homo sapiens; HS 578T (Breast Cancer), 10^-5 M, 48 h; read-out: % Growth Inhibition (GI %).

As to `O=C(O)c1cn(C2CC2)c2cc(N3CCN(S(=O)(=O)c4ccc(Cl)c(Cl)c4)CC3)c(F)cc2c1=O` [Compound 3b], the GI50 in assay [1] was 1440 nM; in assay [2] it was 2480 nM; in assay [3] it was 2530 nM; in assay [4], 2970 nM; in assay [5] it was 4770 nM; in assay [6], 3240 nM.
Regarding `O=c1[nH]cc(F)c(=O)[nH]1` [Compound 5-FU, 5-fluorouracil, reference compound], the inhibition at 10 µM in assay [7] is more than 100%.
Turning to `CCn1cc(C(=O)O)c(=O)c2cc(F)c(N3CCN(S(=O)(=O)c4ccc(Cl)cc4)CC3)cc21` [Compound 1a], the GI50 in assay [1] turned out to be 2400 nM; in assay [2], 2160 nM; in assay [3], 3080 nM; in assay [4] it was 2920 nM; in assay [5] it was 4470 nM. In addition, the inhibition at 10 µM in assay [7] worked out at 81.1%.
Consider `CCn1cc(C(=O)O)c(=O)c2cc(F)c(N3CCN(S(=O)(=O)c4cccc5ccccc45)CC3)cc21` [Compound 7a], for which the GI50 in assay [1] was 1630 nM; in assay [2], 2720 nM; in assay [3], 2790 nM; in assay [4], 2590 nM; in assay [5] it was 4600 nM; in assay [6], 2600 nM.
Consider `CCn1cc(C(=O)O)c(=O)c2cc(F)c(N3CCN(S(=O)(=O)c4ccc(Cl)cc4Cl)CC3)cc21` [Compound 2a], for which the GI50 in assay [1] came out at 1480 nM; in assay [2], 2650 nM; in assay [3], 2550 nM; in assay [4] it was 2770 nM; in assay [5], 3080 nM; in assay [6], 2860 nM.
On to `Cc1cc(C)c(S(=O)(=O)N2CCN(c3cc4c(cc3F)c(=O)c(C(=O)O)cn4C3CC3)CC2)c(C)c1` [Compound 6b], for which the GI50 is 1420 nM in assay [1]; more than 100000 nM in assay [2]; 2340 nM in assay [3]; 2610 nM in assay [4]; 3650 nM in assay [5]; 5190 nM in assay [6].
